Measured values: patent publication US10189798B2, “Antimicrobial compounds, methods of making the same and articles comprising them” (MEDICAL TECHNOLOGY RESEARCH INC, priority 2014, dated 2019)

Legend:
[1] = tested on: Staphylococcus aureus ATCC6538; assay: Zone of inhibition (ZOI) assay; format: cell-based; settings: for antimicrobial activity, qualitative: ZOI assay, S. aureus ATCC6538
Method: The antimicrobial activity of the antimicrobial silver s-triazine compounds was verified by standard zone of inhibition (ZOI) assay known to those skilled in the art. Briefly, in this assay, samples were placed on plates with proprietary agar formula (similar to Mueller Hinton Agar (MHA)) that were inoculated with bacteria and incubated at 37° C. overnight. If antimicrobial activity in the sample was present, it formed a clear zone around the edges. As negative control, the samples without the silver active compound were used. For primary screening of antimicrobial activity, the gram positive bacteria Staphylococcus aureus ATCC6538 was employed in the assay. To examine broad spectrum antimicrobial activity, various different types of organisms including gram negative Pseudomonas aeruginosa ATCC9027, Methicillin-Resistance Staphylococcus aureus (MRSA) and Vancomycin-Resistant Enterococci (VRE) could be employed. In investigating the broad spectrum activity, the ZOI assay is performed slightly differently. Instead of laying the samples on plates individually inoculated with different types of bacteria, the bacterial inoculums are streaked as parallel lines on one plate. After streaking the inoculum linearly, the samples are deposited as a continuous bead string in perpendicular direction to the streak lines. Evidence of antimicrobial activity in the sample is seen in the form of interruptions on both sides of the edges of the sample string.

[2] = Discoloration on table lamp light exposure; format: physicochemical; settings: for time without discoloration under table lamp light: clear solution with ammonium hydroxide, ~5000 ppm silver, lamp at 12″
Method: Stock solutions (0.1M) of monosodium salts of DMCA, EIC and MIC were prepared. […] To accelerate anion exchange between sodium and silver cations, heating of liquids was carried out in microwave between ˜50° to 55° C. The tube contents were cooled and then to each tube neat ammonium hydroxide (0.1 ml) was added which caused the suspensions to clear for all three compounds. […] The theoretical content of silver in the clear solutions was ˜5000 ppm. To a 100 ml PP cup with stir bar, deionized water was added (13.2 ml).

[3] = water, 25° C.
[4] = Discoloration on direct sunlight exposure; format: physicochemical; settings: for direct sunlight exposure withstood before any sign of discoloration: undiluted aqueous suspension, ~5500 ppm silver
Method: Silver-PDT powder (˜0.027 g) was transferred to the gel and hand-mixed to uniformity with a spatula to obtain clear to hazy gel. […] For DMCA, the tube was kept at ˜25° C. overnight for reaction completion. […] Considering that the amount of silver in the undiluted suspensions was ˜5500 ppm, the discoloration resistance can be considered extraordinary. In contrast, the undiluted suspension of Ag-PDT withstood 0.5 h of sunlight exposure before discoloration was visible. […] A suspension of Ag-MIC was prepared according to Example 13. […] A 2″×2″ piece of cotton gauze was soaked in the clear solution, blotted with paper towel to remove excess and dried at 55° C. for 0.25 to 0.5 h. In the same clear solution prepared separately, a filter paper strip was immersed, shaken and then dried at 55° C. for 0.25 h-0.5 h. Both substrates with silver-MIC were exposed to direct sunlight. […] Thus, in both instances following substrate impregnation, Ag-MIC still maintained robust light discoloration resistance. […] On a clean glass slide, a small volume (˜0.25 ml) was spread with a transfer pipet and left in an oven at 55° C. to dry for 0.5 h. The theoretical amount of silver in the dried coating was estimated at ˜2700 ppm. […] Such coating composition could be useful in providing antimicrobial surfaces. […] Similar sized piece of each dressing was pouched in foil and steam sterilized. After cooling to room temperature the samples were examined for discoloration. None was observed. […] Even after 4 h of direct sunlight exposure, no discoloration of the Ag-PDT impregnated paper was observed. The approximate theoretical amount of silver in the impregnated paper strip was ˜8700 ppm.

[5] = Discoloration on heat exposure (55° C. / steam sterilization); format: physicochemical; settings: 550 ppm silver
Method: The sterilization of any samples (devices or compositions) comprising antimicrobial silver s-triazine compounds was carried out by steam sterilization. By subjecting test samples to steam sterilization, one can ascertain the ability of the antimicrobial silver s-triazine compounds to withstand thermal stresses. […] Thus, the test samples experienced nearly 3.5 h of hostile temperature condition. […] Silver-PDT powder (˜0.027 g) was transferred to the gel and hand-mixed to uniformity with a spatula to obtain clear to hazy gel. […] Similar sized piece of each dressing was pouched in foil and steam sterilized. After cooling to room temperature the samples were examined for discoloration. None was observed.

[6] = Alginate sheet, Example 17, ~4500 ppm silver

Row | Structure (SMILES) | Zone width [1, 6] [mm] | Zone width ([1]; Cotton gauze, Example 14) [mm] | Zone width ([1]; Filter paper, Example 14) [mm] | Zone width ([1]; Gel, Example 15, 550 ppm silver) [mm] | antimicrobial activity, qualitative [1] | gel discoloration under table lamp light ([2]; Laponite gel, 550 ppm silver, overnight) | time without discoloration under table lamp light [2] [h] | aqueous solubility [3] [µg/mL] | direct sunlight exposure without discoloration ([4]; impregnated cotton gauze, Example 14) [h] | direct sunlight exposure after which faint cream color registered ([4]; impregnated filter paper strip, Example 14) [h] | direct sunlight exposure withstood before any sign of discoloration [4] [h] | gel change at 55° C. ([5]; Laponite gel, 4 weeks) | gel discoloration in direct sunlight ([4]; carboxymethyl cellulose gel, 550 ppm silver, PP tubes) | discoloration as suspension temperature increased during photo-exposure ([4]; diluted suspension ~1350 ppm silver, temperature ~50° C.) | direct sunlight exposure without discoloration ([4]; impregnated thin paper strip, ~8700 ppm silver) [h] | direct sunlight exposure required before signs of discoloration ([4]; suspension diluted with deionized water, ~1350 ppm silver, PP tube) | gel discoloration at 55° C. ([5]; carboxymethyl cellulose gel, short term exposure)
1 | Cn1c(=O)[n-]c(=O)[nH]c1=O.[Ag+] [Ag-MIC] | 9.5 | 5.5 | 8.0 | 2.5 | strong activity | did not discolor | 72 | 48 | > 3 | 1.5 | 1.5 | practically unchanged | – | – | – | – | –
2 | O=c1nc(-c2ccccc2)[nH]c(=O)[n-]1.[Ag+] [Ag-PDT] | 5.5 | – | – | – | strong activity | – | – | – | – | – | 0.5 | – | no discoloration of gel was seen for up to an hour | no discoloration was seen | > 4 | over 4 h | did not show any gel discoloration
3 | CCn1c(=O)[n-]c(=O)[nH]c1=O.[Ag+] [Ag-EIC] | 8.5 | – | – | – | strong activity | – | 96 | 16.5 | – | – | 1.5 | – | – | – | – | – | –
